Measured values from PubChem BioAssay AID1033 (Sanford-Burnham Center for Chemical Genomics, 2008).
Active and inactive are the calls of the source. No rule for the calls is given here.

Each molecule was assayed against Chaperone protein DnaK (Escherichia coli (strain K12)) (UniProt P0A6Y8) (assay: E. coli DnaK SBD ligand binding – biophysical, NMR, chaperone (AID 1033)). Conditions: Purified DnaK SBD.
Chain of Chaperone protein DnaK (Escherichia coli (strain K12)) (P0A6Y8 whole entry, looked up): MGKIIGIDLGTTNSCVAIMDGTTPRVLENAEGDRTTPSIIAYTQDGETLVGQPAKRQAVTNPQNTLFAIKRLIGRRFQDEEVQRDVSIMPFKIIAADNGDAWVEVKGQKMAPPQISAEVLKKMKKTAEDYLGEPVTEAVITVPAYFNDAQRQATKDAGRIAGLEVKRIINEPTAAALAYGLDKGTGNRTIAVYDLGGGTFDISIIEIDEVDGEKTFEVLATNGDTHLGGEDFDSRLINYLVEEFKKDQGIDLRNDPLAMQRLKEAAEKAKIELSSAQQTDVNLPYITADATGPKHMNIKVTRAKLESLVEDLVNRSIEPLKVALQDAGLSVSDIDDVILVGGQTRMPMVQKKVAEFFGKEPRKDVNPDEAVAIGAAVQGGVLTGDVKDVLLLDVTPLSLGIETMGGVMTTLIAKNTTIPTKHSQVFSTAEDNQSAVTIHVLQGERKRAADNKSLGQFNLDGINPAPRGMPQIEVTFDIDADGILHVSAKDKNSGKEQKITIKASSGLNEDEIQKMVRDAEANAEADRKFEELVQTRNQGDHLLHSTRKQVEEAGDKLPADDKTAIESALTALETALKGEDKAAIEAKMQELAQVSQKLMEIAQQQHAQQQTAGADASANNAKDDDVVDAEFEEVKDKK
For `CNC(=S)NCCN1CCOCC1`, the Kd was > 4 mM (inactive).
For `CC(=O)c1cccc(NC(=O)NN2CCOCC2)c1`, the Kd was > 4 mM (inactive).
With `Cn1c(SCCC(=O)O)nnc1-c1cccnc1` the Kd was > 4 mM (inactive).
`Cc1ccccc1NC(=S)NCCO` was tested, and the Kd was > 4 mM (inactive).
With `COc1ccc([C@H]2COc3c(ccc(O)c3OC)C2)c(OC)c1O` the Kd was > 4 mM (inactive).
In the case of `CC(C)(C)CC(=O)NC1=NCCS1`, the Kd is reported as > 4 mM (inactive).
`Clc1ccc(-n2ccnc2)nn1` was tested, and the Kd was > 4 mM (inactive).
With `NCc1ccccc1N1CCCCC1` the Kd was > 4 mM (inactive).
In the case of `COC(=O)c1noc(C)c1C(C)=O`, the Kd is reported as > 4 mM (inactive).
`O=C(O)c1cc(=O)c2cccc(O)c2[nH]1` was tested, and the Kd was > 4 mM (inactive).
In the case of `Cc1cc(CN2C(=O)c3ccccc3C2=O)on1`, the Kd is reported as > 4 mM (inactive).
`CC(=O)N1C(=S)NC(=O)/C1=C\c1cccnc1` was tested, and the Kd was > 4 mM (inactive).
In the case of `NC(=O)CN1CCC(c2nc3ccccc3[nH]2)CC1`, the Kd is reported as > 4 mM (inactive).
`Fc1ccc(Br)cc1/C=N/n1cnnc1` was tested, and the Kd was > 4 mM (inactive).
In the case of `Cc1cc(C)c2nncn2n1`, the Kd is reported as > 4 mM (inactive).
In the case of `O=C(O)c1ccc(-n2cccn2)cc1`, the Kd is reported as > 4 mM (inactive).
`CN1CCN(CC(O)c2ccccc2)CC1` (stereo unspecified) was tested, and the Kd was > 4 mM (inactive).
With `O=C(O)C1CSC2(CCCCC2)N1` (stereo unspecified) the Kd was > 4 mM (inactive).
With `COC(=O)c1ccc2snnc2c1` the Kd was > 4 mM (inactive).
In the case of `O=C1CCCc2c(O)cccc21`, the Kd is reported as > 4 mM (inactive).
In the case of `C=CC(C1=CC(=O)C(OC)=CC1=O)c1ccccc1` (stereo unspecified), the Kd is reported as > 4 mM (inactive).
`CC1=C/C(=C\c2c(O)[nH]c(=O)[nH]c2=O)C(C)=N1` was tested, and the Kd was > 4 mM (inactive).
For `CC(C1OC(C)(C)C(O)C1O)[C@@H]1CC[C@]2(C)C3=CCC4C(C)(C)C(=O)CC[C@]4(C)C3CC[C@@]12C` (stereo partly specified), the Kd was > 4 mM (inactive).
In the case of `O=C1NNC(=O)C2C3c4ccccc4C(c4ccccc43)C12` (stereo unspecified), the Kd is reported as > 4 mM (inactive).
For `CC(=O)O[C@@H]1CC2C(C)(C)C(=O)C=C[C@]2(C)C2CC[C@@]3(C)[C@H](c4ccoc4)OC(=O)[C@H]4O[C@]43[C@@]21C` (stereo partly specified), the Kd was > 4 mM (inactive).
In the case of `CC(=O)CC(=O)N1C(O)CC[N+]1(C)C` (stereo unspecified), the Kd is reported as > 4 mM (inactive).
With `COc1ccc2c(c1)c1n[nH]c(=S)nc1n2C` the Kd was > 4 mM (inactive).
`CCOc1ccc(C(=O)c2ccc(O)c(O)c2O)cc1` was tested, and the Kd was > 4 mM (inactive).
In the case of `O=C1c2ccccc2C(=O)N1OCc1ccccc1`, the Kd is reported as > 4 mM (inactive).
With `c1ccc(CSc2ncccn2)cc1` the Kd was > 4 mM (inactive).
In the case of `NC(=S)CN1CCCC1=O`, the Kd is reported as > 4 mM (inactive).
`C=C1C(=O)OC2CC1C(OC(C)=O)C/C(C)=C/CC/C(C)=C/CC[C@]2(C)O` (stereo partly specified) was tested, and the Kd was > 4 mM (inactive).
In the case of `OCc1cc2ccccc2o1`, the Kd is reported as > 4 mM (inactive).
With `O=C(O)CNC(=O)c1ccccc1Cl` the Kd was > 4 mM (inactive).
In the case of `CC(=O)OC1CCC2(C)C(=CC=C3C2CCC2(C)C3CCC2C(C)/C=C/C(C)C(C)C)C1(C)C` (stereo unspecified), the Kd is reported as > 4 mM (inactive).
For `CC(=O)O[C@@H]1CC2C(C)(C)C(=O)[C@@H]3O[C@@H]3[C@]2(C)C2CC[C@]3(C)C(=CC(=O)O[C@H]3c3ccoc3)[C@@]21C` (stereo partly specified), the Kd was > 4 mM (inactive).
For `Cn1nc(C(=O)Nc2cccnc2)cc1Cl`, the Kd was > 4 mM (inactive).
In the case of `Nc1nc(O)c(C2=c3cc(Cl)ccc3=NC2=O)s1`, the Kd is reported as > 4 mM (inactive).
With `CN1CCc2c(sc(N)c2C#N)C1` the Kd was > 4 mM (inactive).
In the case of `CC(=O)NC(=S)Nc1ccccc1C(N)=O`, the Kd is reported as > 4 mM (inactive).
With `Clc1ccc(-c2nnc3ccccn23)cc1` the Kd was > 4 mM (inactive).
For `C[C@]12CC(=O)C3C(CC[C@@H]4C[C@H](O)CC[C@]34C)C1CC[C@]2(O)C(=O)CO` (stereo partly specified), the Kd was > 4 mM (inactive).
With `COc1cc(C)c(Cl)cc1S(=O)(=O)N(C)C` the Kd was > 4 mM (inactive).
`CN1CCC(N2CCOCC2)CC1` was tested, and the Kd was > 4 mM (inactive).
For `NC(=O)c1ccc(-c2csnn2)cc1`, the Kd was > 4 mM (inactive).
`Cn1c(=O)c2cn3ncccc3c2n(C)c1=O` was tested, and the Kd was > 4 mM (inactive).
In the case of `COC(=O)CC1C(C)(C)C(OC(C)=O)[C@@H]2[C@@H](OC(C)=O)[C@]34O[C@@]2(O)[C@]1(C)C3CC[C@]1(C)C4=CC(=O)O[C@H]1c1ccoc1` (stereo partly specified), the Kd is reported as > 4 mM (inactive).
`COc1cc(C(C)=O)ccc1OCC(O)Cn1ccnc1` (stereo unspecified) was tested, and the Kd was > 4 mM (inactive).
In the case of `COC(=O)[C@@H]1OC(=O)C2OC23[C@@]1(C)CCC1[C@]2(C)C(C[C@@H](O)[C@]13C)C(C)(C)[C@H](OC(C)=O)C[C@@H]2OC(C)=O` (stereo partly specified), the Kd is reported as > 4 mM (inactive).
In the case of `O=C(Nc1ccon1)c1csc2ccccc12`, the Kd is reported as > 4 mM (inactive).
`CC(=O)NC12CC3CC(C)(C1)CC(NC(C)=O)(C3)C2` was tested, and the Kd was > 4 mM (inactive).
For `CC(=O)Nc1nnc(-c2ccncc2)s1`, the Kd was > 4 mM (inactive).
For `O=C1C=CC2=C3c4cc(O)c(O)cc4C[C@@]3(O)COC2=C1`, the Kd was > 4 mM (inactive).
With `O=C(Nc1cccc2ncccc12)c1cccnc1` the Kd was > 4 mM (inactive).
`Cc1ccc(Nc2nc(N)nc(CC#N)n2)cc1` was tested, and the Kd was > 4 mM (inactive).
In the case of `CCC[C@H]1CC2=C(C[C@@H](CC)CC3=C1C(=O)OC3=O)C(=O)OC2=O`, the Kd is reported as > 4 mM (inactive).
For `O=C1c2ccccc2C(=O)c2c(O)c(O)cc(O)c21`, the Kd was > 4 mM (inactive).
For `O=C(O)c1cccc2c1OCCCO2`, the Kd was > 4 mM (inactive).
In the case of `CCC(=O)NC(=S)Nc1ccc(C(N)=O)cc1`, the Kd is reported as > 4 mM (inactive).
For `COc1ccc(NC(=O)c2ccc[n+]([O-])c2)cc1`, the Kd was > 4 mM (inactive).
For `Cc1nc(NC2=NCCC(=O)N2)nc2ccccc12`, the Kd was > 4 mM (inactive).
With `C=CC(=O)N1CC2CC(C1)c1cccc(=O)n1C2` (stereo unspecified) the Kd was > 4 mM (inactive).
With `O=C(O)c1cc(=O)[nH]c2ccccc12` the Kd was > 4 mM (inactive).
`C=C[C@H]1CN2CC[C@H]1C[C@H]2[C@H](O)c1ccnc2ccccc12` was tested, and the Kd was > 4 mM (inactive).
In the case of `Cc1ccc(-n2[nH]c(C)cc2=O)cc1`, the Kd is reported as > 4 mM (inactive).
`O=C(Cc1ccc(F)cc1)Nc1ncccn1` was tested, and the Kd was > 4 mM (inactive).
For `Cc1ccccc1-n1c(-c2cccnc2)n[nH]c1=S`, the Kd was > 4 mM (inactive).
`COc1cc(O)c2c(=O)c(O)c(-c3ccc(O)c(O)c3)oc2c1` was tested, and the Kd was > 4 mM (inactive).
`NCCN=C1NS(=O)(=O)c2ccccc21` was tested, and the Kd was > 4 mM (inactive).
`NC(=O)c1cc2c(n(-c3ccccc3)c1=O)CCCC2=O` was tested, and the Kd was > 4 mM (inactive).
`O=C1CNc2cc(C(=O)O)ccc2N1` was tested, and the Kd was > 4 mM (inactive).
`COC1C(O)C(O)C(O)[C@@H](O)C1O` (stereo partly specified) was tested, and the Kd was > 4 mM (inactive).
For `Cc1c(/C=N\n2cnnc2)c2ccccc2n1C`, the Kd was > 4 mM (inactive).
In the case of `S=C(Nc1ccccc1)Nc1nncs1`, the Kd is reported as > 4 mM (inactive).
With `CCNC(=S)N1CCC(C(N)=O)CC1` the Kd was > 4 mM (inactive).
For `CC(=O)Nc1ccc2c(c1)C(=O)N(C1CCCCC1)C2=O`, the Kd was > 4 mM (inactive).
`Cc1nc2[nH]onc2c2nccc(=O)c12` was tested, and the Kd was > 4 mM (inactive).
In the case of `O=C1C2C3C=CC(C3)C2C(=O)N1c1nccs1` (stereo unspecified), the Kd is reported as > 4 mM (inactive).
For `NC(=O)C1CCN(C(=O)Nc2ccccc2)CC1`, the Kd was > 4 mM (inactive).
`Cc1cc(NC(=O)CS(=O)(=O)c2ccccc2)no1` was tested, and the Kd was > 4 mM (inactive).
`C=C(C)[C@H]1COc2cc3oc(=O)ccc3cc2O1` was tested, and the Kd was > 4 mM (inactive).
With `CC(=O)Nc1sccc1C(=O)NC(N)=O` the Kd was > 4 mM (inactive).
In the case of `Nc1ccn(C2O[C@H](CO)[C@@H](O)[C@H]2O)c(=O)n1` (stereo partly specified), the Kd is reported as > 4 mM (inactive).
In the case of `c1ccc(-n2nnnc2-n2cnc3ccccc32)cc1`, the Kd is reported as > 4 mM (inactive).
In the case of `O=C(O)C1CC2CC1CCC2O` (stereo unspecified), the Kd is reported as > 4 mM (inactive).
In the case of `Nc1cc(F)nc(F)n1`, the Kd is reported as > 4 mM (inactive).
`O=C(O)C1CCN(S(=O)(=O)c2cccs2)CC1` was tested, and the Kd was > 4 mM (inactive).
`COc1c(-c2coc3cc4c(cc3c2=O)CC(O)C(C)(C)O4)ccc2c1C=CC(C)(C)O2` (stereo unspecified) was tested, and the Kd was > 4 mM (inactive).
For `NC(=O)CSc1ncnc2ccccc12`, the Kd was > 4 mM (inactive).
In the case of `O=C(NCc1ccco1)c1nc2ncccn2n1`, the Kd is reported as > 4 mM (inactive).
`Cc1cc(C)n(C2CCS(=O)(=O)C2)n1` (stereo unspecified) was tested, and the Kd was > 4 mM (inactive).
`NC(=O)C1CCN(C(=S)c2ccccc2)CC1` was tested, and the Kd was > 4 mM (inactive).
With `NCC1COc2ccccc2O1` (stereo unspecified) the Kd was > 4 mM (inactive).
`NC(c1ccccc1)c1ccccn1` (stereo unspecified) was tested, and the Kd was > 4 mM (inactive).
With `Cc1n[nH]c(=S)[nH]c1=O` the Kd was > 4 mM (inactive).
In the case of `CC1(c2ccncc2)NC(=O)NC1=O` (stereo unspecified), the Kd is reported as > 4 mM (inactive).
In the case of `COC(=O)Cn1c2ccccc2c2nc(C)sc21`, the Kd is reported as > 4 mM (inactive).
For `Brc1ccc(-c2nc(-c3ccncc3)no2)o1`, the Kd was > 4 mM (inactive).
`c1ccc(SCc2nc(-c3ccccn3)no2)cc1` was tested, and the Kd was > 4 mM (inactive).
In the case of `CCOC(=O)c1csc(C)n1`, the Kd is reported as > 4 mM (inactive).
With `COc1cc(N)ccc1NC(=O)c1cccs1` the Kd was > 4 mM (inactive).
In the case of `NCc1ccc(-c2cccs2)s1`, the Kd is reported as > 4 mM (inactive).
`Cc1nn(C)c2sc(C(=O)O)cc12` was tested, and the Kd was > 4 mM (inactive).
`O=C(NCc1cccc(Cl)c1)c1cnccn1` was tested, and the Kd was > 4 mM (inactive).
With `CC(=O)Nc1ccccc1OCC(N)=O` the Kd was > 4 mM (inactive).
With `COc1cc2c(cc1OC)C1(O)C(=O)c3ccc(O)c(C(=O)O)c3OC1CO2` (stereo unspecified) the Kd was > 4 mM (inactive).
In the case of `CC(=O)Nc1cc(S(=O)(=O)N(C)C)ccc1Cl`, the Kd is reported as > 4 mM (inactive).
`O=C(Nc1ccccc1F)c1ccncc1` was tested, and the Kd was > 4 mM (inactive).
For `CC(=O)Nc1ccc(S(=O)(=O)N2CCN=C2C)cc1`, the Kd was > 4 mM (inactive).
`c1cc2c(cc1[C@H]1OC[C@H]3[C@@H]1CO[C@H]3c1ccc3c(c1)OCO3)OCO2` was tested, and the Kd was > 4 mM (inactive).
With `COC(=O)C1=CO[C@@H](O[C@@H]2O[C@H](CO)[C@@H](O)[C@H](O)[C@H]2O)[C@@H]2[C@@H](C)[C@@H](O)C[C@H]12` the Kd was > 4 mM (inactive).
With `c1ccc(C[N+]23CCN(CC2)c2ccccc23)cc1` the Kd was > 4 mM (inactive).
In the case of `CN1C(=O)c2ccc(N=C3NC(=O)CS3)cc2C1=O`, the Kd is reported as > 4 mM (inactive).
With `CN(c1ccccc1C(=O)N1CCOCC1)S(C)(=O)=O` the Kd was > 4 mM (inactive).
`O=C(O)c1ccc(N2CCCCC2)cc1` was tested, and the Kd was > 4 mM (inactive).
`Cc1cc(C)n(S(=O)(=O)c2ccc(C)c(C)c2C)n1` was tested, and the Kd was > 4 mM (inactive).
